Assay results published in article PMC4519859, “Synthesis and Biological Evaluation of Novel Dehydroabietic Acid Derivatives Conjugated with Acyl-Thiourea Peptide Moiety as Antitumor Agents” (International Journal of Molecular Sciences, 2015).

Key:
MGC-803 = experiment: MTT cytotoxicity assay, MGC-803; type: cell-based; conditions: Homo sapiens, 48 h, mean ± SD, three independent experiments
Method: (§1) The in vitro cytotoxic potency of DHAA acyl-thiourea derivatives 8a–8o and 9a–9o were evaluated by 3-(4,5-dimethylthiazol-2-yl)-2,5-diphenyltetrazolium bromide (MTT) assay against HeLa, SK-OV-3 and MGC-803 tumor cell lines, with 5-FU as the positive control.
(§2) General procedure for cytotoxic evaluation in vitro: HeLa, HepG2, SK-OV-3 and MGC-803 cells were seeded into 96-well microculture plates and allowed to adhere for 24 h, respectively. After cells were exposed to compounds at concentrations from 100 to 0.01 μM for 48 h, medium was aspirated and replenished with complete medium. IC50 was evaluated by MTT tetrazolium dye assay. Each experiment was performed three times; Statistical analysis: All statistical analysis was performed with SPSS Version 10 (SPSS, Chicago, IL, USA). Data was analyzed by one-way ANOVA. Mean separations were performed using the least significant difference method. Each experiment was replicated thrice, and all experiments yielded similar results. Measurements from all the replicates were combined, and treatment effects were analyzed.

HeLa = experiment: MTT cytotoxicity assay, HeLa; type: cell-based; conditions: Homo sapiens, 48 h, mean ± SD, three independent experiments
Method: as §1, §2

HeLa cells [1] = experiment: Cell cycle distribution by PI flow cytometry; type: cell-based, human; conditions: 10, 15 μM, 48 h
Method: Many anticancer drugs interact with cells leading to cell growth arrest. To determine the possible role of cell cycle arrest in DHAA derivative induced growth inhibition, HeLa cells were treated with different concentrations of compound 9n. Cell cycle distribution was investigated by flow cytometric analysis after staining of the DNA with propidium iodide (PI).
General procedure cell cycle: HeLa cells were maintained in Dulbecco’s modified Eagle’s medium with 10% fetal calf serum in 5% CO2 at 37 °C. Cells were harvested by trypsinization and rinsed with PBS. After centrifugation, the pellet (10^5–10^6 cells) was suspended in 1 mL of PBS and kept on ice for 5 min. The cell suspension was then fixed by the drop-wise addition of 9 mL precooled (4 °C) 75% ethanol with violent shaking. Fixed samples were kept at 4 °C until use. For staining, cells were centrifuged, resuspended in PBS, digested with 500 μL of RNase A (250 mg/mL), and treated with 25 μL of propidium iodide (PI) (0.15 mM), then incubated for 30 min at 4 °C. PI-positive cells were counted with a FACScan Fluorescence-activated cell sorter (FACS). The population of cells in each cell-cycle phase was determined using Cell Modi FIT software (Becton Dickinson).

HeLa cells [2] = experiment: AO/EB staining; type: cell-based, human; conditions: 10 μM, 12 and 24 h
Method: The cytotoxicity of compound 9n at a concentration of 10 μM against HeLa cells from 12 to 24 h was detected by AO/EB staining, and Hela cells not treated with the 9n were used as control for 48 h. […] Also due to the AO uptake, control cells appeared green while 9n treated cells appeared green to intense green as apoptotic cells had much more permeable membranes.
Cells were seeded at a concentration of 5 × 10^4 cell/ mL in a volume of 2 mL on a sterile cover slip in six-well tissue culture plates. Following incubation, the medium was removed and replaced with fresh medium plus 10% fetal bovine serum and supplemented with compound 9n (15 μM). After the treatment period, the cover slip with monolayer cells was inverted on a glass slide with 20 μL of AO/EB stain (100 mg/mL). Fluorescence was read on a slide with 20 μL of AO/EB stain (100 mg/mL) using a Nikon ECLIPSETE2000-S fluorescence microscope ([…], Tokyo, Japan).

SK-OV-3 = experiment: MTT cytotoxicity assay, SK-OV-3; type: cell-based; conditions: Homo sapiens, 48 h, mean ± SD, three independent experiments
Method: as §1, §2

HeLa cells [3] = experiment: Intracellular Ca2+ release (Fluo-3/AM); type: cell-based, human; conditions: 10 μM, 24 h
Source text: Mitochondria have also been implicated as a source of ROS during apoptosis. […] We herein studied whether the loss of mitochondrial transmembrane potential resulting in the generation of ROS measured as described in our previous papers , using the fluorescent probe 2,7-dichlorofluorescein diacetate (DCF-DA) determined by fluorescence microscopy. […] Calcium has long been recognized as a significant participant in cell apoptosis. Therefore, we investigated whether compound 9n inducing cell death was involved in the production of Ca^2+. To investigate the effect of compound 9n on calcium release, HeLa cells treated with compound 9n at 10 μM for 24 h were loaded with the Ca^2+ indicator Fluo-3-acetoxymethyl-ester (Fluo-3/AM, 5 µM; Beyotime, Jiangsu, China).

HL-7702 = experiment: MTT cytotoxicity assay, HL-7702 normal cells; type: cell-based; conditions: L02, 48 h, normal human cells, mean ± SD, three independent experiments
Method: [The source words this procedure for another cell line and reports this cell line under the same test.] as §1, §2

With `CC(C)c1ccc2c(c1)CCC1[C@](C)(C(=O)NC(=S)N[C@H](Cc3ccccc3)C(=O)Nc3ccccn3)CCC[C@]21C` (stereo partly drawn) [Compound 9n, (1R,4aS)-7-Isopropyl-1,4a-dimethyl-N-(((R)-1-oxo-3-phenyl-1-(pyridin-2-ylamino)propan-2-yl)carbamothioyl)-1,2,3,4,4a,9,10,10a-octahydrophenanthrene-1-carboxamide] the IC50 (MGC-803) was 16.9 ± 1.56 µM, the IC50 (HeLa) was 6.58 ± 1.11 µM and the cell cycle arrest (HeLa cells [1]) was “mainly arrested HeLa cells in the S stage”. For the same compound, the “apoptosis by AO/EB staining” value (HeLa cells [2]) was “obvious apoptotic characters”, the IC50 (SK-OV-3) was 19.6 ± 1.87 µM and the “intracellular Ca2+ release” value (HeLa cells [3]) was “stronger green fluorescence”. It also gave an IC50 (HL-7702) of 39.6 ± 1.47 µM.
